From paper PMC6856131, “Pathways to defense metabolites and evading fruit bitterness in genus Solanum evolved through 2-oxoglutarate-dependent dioxygenases” (Nature Communications, 2019)

Experiments:
ScGAME32-8380-1-2 = tested on: T1, ScGAME32-8380-1-2; assay: hydroxylation assay, UPLC-qTOF-MS; type: biochemical, Solanum chacoense; settings: alpha-ketoglutarate 10 mM, ascorbate 10 mM, FeSO4 500 uM, pH 7.5, 30 °C, 3 h; standard contains isomer impurities
T1 construct: pET28b, E. coli BL21 (DE3), Ni-NTA purified

ScGAME32-8380-1-1 = tested on: T2, ScGAME32-8380-1-1; assay: hydroxylation assay, UPLC-qTOF-MS; type: biochemical, Solanum chacoense; settings: alpha-ketoglutarate 10 mM, ascorbate 10 mM, FeSO4 500 uM, pH 7.5, 30 °C, 3 h; standard contains isomer impurities
T2 construct: pET28b, E. coli BL21 (DE3), Ni-NTA purified

GAME31 (tomato) = target: T3, GAME31 (tomato) (Solanum lycopersicum, UniProt A0A6F8PJG0); type: biochemical; settings: alpha-ketoglutarate 10 mM, ascorbate 10 mM, FeSO4 500 uM, pH 7.5, 30 °C, 3 h
T3 construct: gene 23DOX
T3 sequence (A0A6F8PJG0 entry or part of it): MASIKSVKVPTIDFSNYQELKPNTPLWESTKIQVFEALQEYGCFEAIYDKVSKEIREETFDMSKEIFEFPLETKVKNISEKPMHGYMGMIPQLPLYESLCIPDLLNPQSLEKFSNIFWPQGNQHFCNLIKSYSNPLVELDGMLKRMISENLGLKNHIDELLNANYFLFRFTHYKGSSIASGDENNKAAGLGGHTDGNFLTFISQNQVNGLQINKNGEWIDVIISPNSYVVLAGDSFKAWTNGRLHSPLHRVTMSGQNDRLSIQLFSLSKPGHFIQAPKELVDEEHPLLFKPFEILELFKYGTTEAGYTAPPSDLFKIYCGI

T1 sequence (DOC6856131_7 entry or part of it): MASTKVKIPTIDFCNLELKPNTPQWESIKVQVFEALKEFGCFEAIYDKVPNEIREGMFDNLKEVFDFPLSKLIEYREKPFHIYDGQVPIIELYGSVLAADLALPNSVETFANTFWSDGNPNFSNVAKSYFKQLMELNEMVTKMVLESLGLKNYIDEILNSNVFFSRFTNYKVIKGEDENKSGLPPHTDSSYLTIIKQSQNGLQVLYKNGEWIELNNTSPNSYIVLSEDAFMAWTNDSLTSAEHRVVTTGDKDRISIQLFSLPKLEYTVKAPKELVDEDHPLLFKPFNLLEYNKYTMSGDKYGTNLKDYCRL
T2 sequence (DOC6856131_6 entry or part of it): as the sequence (DOC6856131_7 entry or part of it) above, with L288M, N292L, Y301S counted along it

C[C@H]1CC[C@@H]2[C@@H](C)[C@H]3[C@H](C[C@H]4[C@@H]5CC=C6C[C@@H](O[C@@H]7O[C@H](CO)[C@@H](O[C@@H]8O[C@@H](C)[C@H](O)[C@@H](O)[C@H]8O)[C@H](O)[C@H]7O[C@@H]7O[C@@H](C)[C@H](O)[C@@H](O)[C@H]7O)CC[C@]6(C)[C@H]5CC[C@]34C)N2C1 [α-chaconine]
hydroxylation assay, UPLC-qTOF-MS (ScGAME32-8380-1-2): Incubation of ScGAME32-8380-1-1 or ScGAME32-8380-1-2 with α-chaconine and α-solanine resulted in the formation | hydroxylation assay, UPLC-qTOF-MS (ScGAME32-8380-1-1): Incubation of ScGAME32-8380-1-1 or ScGAME32-8380-1-2 with α-chaconine and α-solanine resulted in the formation

C[C@@H]1CC[C@@]2(NC1)O[C@H]1C[C@H]3[C@@H]4CC=C5C[C@@H](O[C@@H]6O[C@H](CO)[C@@H](O[C@@H]7O[C@@H](C)[C@H](O)[C@@H](O)[C@H]7O)[C@H](O)[C@H]6O[C@@H]6O[C@@H](C)[C@H](O)[C@@H](O)[C@H]6O)CC[C@]5(C)[C@H]4CC[C@]3(C)[C@H]1[C@@H]2C [α-solamargine]
hydroxylation assay, UPLC-qTOF-MS (GAME31 (tomato)): hydroxy-solasodine, and hydroxy-solamargine from dehydrotomatine, solasodine, and α-solamargine, respectively
